# Assay results reported in ChEMBL document CHEMBL1121562, “2-Methylanthraquinone derivatives as potential bioreductive alkylating agents” (1980).
# pEC50: −log10 of the molar value.
# What was measured:
# [1] = tested on: EMT6; assay: Percentage of EMT6 tumor cells under hypoxic condition were killed when exposed to 10 uM concentration of the compound; format: functional, Mus musculus
# [2] = tested on: EMT6; assay: Compound is measured for surviving fractions of EMT6 tumor cells treated in culture with (0.50 uM) concentration for 1 hr under aerobic condition.; format: functional; conditions: Mus musculus, EMT6, 1 h; read-out: ED50 (the source's name)
# [3] = tested on: EMT6; assay: Compound is measured for surviving fractions of EMT6 tumor cells treated in culture with (0.50 uM) concentration for 1 hr under hypoxic condition.; format: functional; conditions: Mus musculus, EMT6, 1 h; read-out: ED50 (the source's name)
# [4] = Ratio of toxicity in areobic conditions to hypoxic condition of EMT6 cells; format: functional
# [5] = tested on: EMT6; assay: Maximum effective concentration against EMT6 tumor cells uncer aerobic conditions; format: functional, cell-based; conditions: Mus musculus
Structure (SMILES),Inhibition [1] [%],pEC50 [2],pEC50 [3],Ratio [4],Concentration [5] [µM]
Cc1ccc(S(=O)(=O)OCc2ccc3c(c2)C(=O)c2ccccc2C3=O)cc1,50,< 3.00,5.05,>111,–
O=C1c2ccccc2C(=O)c2cc(CO)ccc21,–,3.46,5.60,139,–
CNC(=O)OCc1ccc2c(c1)C(=O)c1ccccc1C2=O,–,5.09,6.57,30,100
CS(=O)(=O)OCc1ccc2c(c1)C(=O)c1ccccc1C2=O,–,3.74,4.16,2.6,–
COc1cccc2c1C(=O)c1c(O)c3c(c(O)c1C2=O)C[C@@](O)(C(=O)CO)C[C@@H]3O[C@H]1C[C@H](N)[C@H](O)[C@H](C)O1 [DOXORUBICIN],–,7.92,> 10.00,>120,–
O=C1c2ccccc2C(=O)c2cc(CCl)ccc21,–,6.51,> 7.92,>26,–
CC(=O)OCc1ccc2c(c1)C(=O)c1ccccc1C2=O,–,5.44,5.05,0.4,–
CO[C@@]12[C@H](COC(N)=O)C3=C(C(=O)C(C)=C(N)C3=O)N1C[C@@H]1N[C@@H]12 [MITOMYCIN],–,6.15,9.00,700,–
Cc1ccc2c(c1)C(=O)c1ccccc1C2=O [TECTOQUINONE],–,5.77,6.27,3.2,–
COCc1ccc2c(c1)C(=O)c1ccccc1C2=O,–,4.52,6.22,50,–
